Reference: patent publication US20150024001A1, “MOLECULAR MIMIC MUCOSAL AIDS VACCINE” (priority 2011, published 2015)

Experiments:
UAE-1 = conditions: cited from earlier work
gp140 = conditions: subcutaneous booster in monkeys first immunized with Hub-TGDK-UPA-CpGODN-gp140-Fetuin, after anti-gp140 titer had decreased (about one year and a half)
Source text: The resulting modified gene of SIVmac239 Env was transferred into simian Vero cells and a monomer and a trimer of SIVmac239 Env gp140 were constructed.

In the case of NCCNC(=O)[C@H](CCCCNC(=O)[C@H](CCCCNC(=O)c1cc(O)c(O)c(O)c1)NC(=O)c1cc(O)c(O)c(O)c1)NC(=O)[C@H](CCCCNC(=O)c1cc(O)c(O)c(O)c1)NC(=O)c1cc(O)c(O)c(O)c1 [TGDK, N^2,N^6-bis[N^2,N^6-bis(3,4,5-trihydroxybenzoyl)-L-lysyl]-N-(2-aminoethyl)-L-lysine amide], the “mode of inhibition of UAE-1” value (UAE-1) is listed as “competitive inhibitor”.

In the case of Fetuin, the “production of anti-gp140 antibodies after booster” value (gp140) is reported as “production of anti-gp140 antibodies was confirmed”.
